Assay results as given in US11357774B2, “Use of a quinoline sulfonyl compound for treatment of inflammation, inflammatory disorders, autoimmune disorders and malaria” (priority 2019, dated 2022).

Tests used:
[1] = test system: mouse lung tissues with ALI caused by LPS; experiment: Histopathological analysis of lung tissues of mice with LPS-induced ALI; type: in vivo; conditions: LPS 0.4 mg/kg, 24 hours, VR23 30 mg/kg, DEX 4 mg/kg
Protocol: Six to eight week old female BALB/c mice strain 028 (Charles River Laboratories, QC, Canada) were fed regularly with laboratory chow and water upon arrival at the Laurentian University Animal Care Facility (Sudbury, ON, Canada). To determine a useful dose of LPS, three mice per group were treated for 24 hours with the following three different conditions: (i) no LPS, (ii) 0.25 mg of LPS per kg of body weight, and (iii) 0.50 mg of LPS per kg of body weight. The different concentrations of LPS were administered intranasally to the three BALB/c mice per concentration. After the animals were sacrificed, the bronchoalveolar lavage fluid (BALF) of each mouse was collected and analyzed for LPS-induced inflammatory responses. […] Experimental design involving the use of VR23 was based on a previous acute lung injury (ALI) instillation by Wei and Huang^26. Briefly, mice were divided into 5 groups, with 3-5 mice per group: no lung injury (i.e., no treat), sham treated, LPS-only, LPS+DEX, and LPS+VR23. […] Bronchoalveolar lavage fluid was collected and the number of cells infiltrated into the bronchoalveolar fluid were counted (FIG. 2). […]
At 24-hour post-induction of lung injury with LPS, lung tissues were embedded in the paraffin block, followed by slicing them into 10 μm sections using a microtome. […] For microscopy, at least 10 fields were analyzed for each sample. […]

[2] = test system: human fibroblast-like synoviocytes from healthy donors (HFLS-N); experiment: Viability test, HFLS-N cells; type: cell-based; conditions: 6 hours, IL-1β 10 ng/mL, VR23 2.5-10 μM
Protocol: The values presented are the mean±SEM (n=3).
The CCK-8 assay was used to count viable cells under the various treatment conditions. Briefly, cells were cultured in 11 columns of a 96-well clustered plate, with 5,000 cells in 100 μL of culture medium per well, excluding one column for a media-only control. The plate was incubated overnight at 37° C. in the humidified conditions, followed by treatment with test compounds diluted in the culture medium (10 μL). Each column was treated with a different condition so that each treatment could have 8 repeats. […] The absorbance was measured using an automatic plate reader (Synergy H4 Hybrid Multi-Mode Microplate Reader, BioTek, Montreal, Canada) at 450 nm wavelength. The cell viability of each treatment sample was determined by using the following equation (%)=(Abstrtmt-Absmedia)/(AbsuT-Absmedia)*100, where Abstrtmt is the absorbance value of cells with the various treatment conditions; Absmedia is the absorbance of the well containing media only; AbsuT is the absorbance of the wells with untreated cells.
This finding was extended to human cells relevant to autoimmune diseases. […] Cytokine levels in cell culture supernatants were determined by a single-analyte ELISA. […] The cytokine secretion was measured in cell culture supernatants by a single-analyte ELISA.

[3] = test system: IL-6 secretion in HFLS-N cells; experiment: IL-6 secretion in stimulated HFLS-N cells (ELISA); type: cell-based, human; conditions: 6 hours
Protocol: The mean±SEM (n=3) values were determined by a Dunnett's test.
The values presented are the mean±SEM (n=2).
The enzyme-linked immunosorbent assay (ELISA) is a quantitative measurement based on sandwich-based enzyme linking, using a protein-specific capture antibody to determine the levels of single or multiple chemokines and cytokines.
This finding was extended to human cells relevant to autoimmune diseases. Human fibroblast-like synoviocytes (HFLS) are present in the synovial fluid of joint capsules and produce harmful molecules that contribute to joint destruction and the exacerbation of the disease in rheumatoid arthritis patients. […] The cells were then stimulated with IL-1β (FIG. 16) or LPS (FIG. 17), in the absence (control; IL-1β only) or presence of VR23 or HCQ. HCQ was included for comparison because it is often used to treat rheumatoid arthritis. […] For “VR23 only” samples, 5 μM VR23 was used. Fifty thousand HFLS cells per mL were used for the experiment. Cytokine levels in cell culture supernatants were determined by a single-analyte ELISA. […] Fifty thousand HFLS cells per mL were used for the experiment. The cytokine secretion was measured in cell culture supernatants by a single-analyte ELISA.

[4] = test system: PBMC cells; experiment: Sulforhodamine B (SRB) assay, IC50 on PBMC; type: cell-based, human
Protocol: The sulforhodamine B (SRB) assay^21 was used to determine the drug concentration that half of the cell growth/viability is inhibited (IC50). Cells were cultured in 96-well plates, with 5,000 cells in 100 μL of culture medium per well. The rest of the protocol was the same as described previously^22,23.
Data shown in Table 1 are IC50 values of VR23 and other compounds, which were determined using sulforhodamine B (SRB) assays on immunologically relevant cells (THP-1, SW-982 and PBMC). […] Two well-known proteasome inhibitors, BTZ and CFZ, were included for comparison since VR23 is also a proteasome inhibitor, albeit targeting different subunits^2. The widely used anti-inflammatory DEX was included, also for comparison.
THP-1, SW982 and PBMC cells (5,000 cells/well) were treated with each compound for 48 hours. The IC50, the drug concentration reducing cell growth/viability by 50%, was determined by a dose-response four-parameter curve (generated with GraphPad Prism V. 4.02) formed by 10 two-fold dilutions (n=3).

## O=[N+]([O-])c1ccc(S(=O)(=O)N2CCN(c3ccnc4cc(Cl)ccc34)CC2)c([N+](=O)[O-])c1 [VR23, 7-chloro-4-(4-(2,4-dinitrophenylsulfonyl)piperazin-1-yl)quinoline]
[1]
  alveolar inflammation caused by LPS (H & E histopathology): largely prevented
[2]
  cell viability: none of the conditions examined significantly affected the viability
[3]; IL-1β 10 ng/mL, VR23 2.5-10 μM, HCQ 15 or 30 μM
  IL-6 secretion, dose dependence: decreases in a dose dependent manner
[3]; LPS 100 ng/mL
  secretion of IL-6: rate of the decrease is much lower
[4]; 48 hours
  IC50: 3.14 ± 0.26 µM
[4]; Homo sapiens, 48 h
  IC50: 3 µM
